The values that follow are results of earlier work, collected in US20090215892A1, “Octanol Formulations and Methods of Treatment Using the Same” (priority 2005, published 2009).

The structures appear in SMILES notation.

The test system of one data set is mice. The conditions noted are these: tested orally in mice.
Data set [1] deals with essential tremor. The conditions noted are these: twelve patients.
For data set [2], the system named is essential tremor. The conditions noted are these: lactose capsule form.
The conditions of data set [3]: ordinary conditions of use and storage.
The subject of data set [4] is hereditary essential tremor. The conditions noted are these: patients with hereditary essential tremor.

Consider `CCCCCCCCO` [Example 1-octanol, 1-octanol], for which the “solubility in water” value was “slightly soluble” and the “Solubility in Water at 40° C. (Wt %)” value was 0.065 Wt %. Moreover, the “toxicity LD5O” value in the data set with mice is 1790 mg/kg. The “duration of reduction of peak tremor amplitude versus baseline” value in the data set on essential tremor [1] (1 mg/kg 1-octanol, no improvement in placebo group (Bushara 2002)) is “up to 2 hours”. Further, in the data set with essential tremor [1] (single oral dose of 1 mg/kg, anhydrous lactose coated capsule (Bushara 2004)), the “change of tremor amplitude frequency” value is given as “decrease”. For the same molecule, the side-effect noted result with essential tremor [2] (single oral doses up to 64 mg/kg) is “unusual taste”. The tolerated dose result with essential tremor [2] (single oral doses, patients with essential tremor) was “up to 64 mg/kg”. In data set [3], the “stability” value was “stable”.
For the molecule `CCCCC(O)CCC` (centres unmarked) [Example 4-octanol, 4-octanol], the “Solubility in Water at 40° C. (Wt %)” value is listed as 0.095 Wt %.
With `CCCCCCC(C)O` (centres unmarked) [Example 2-octanol, 2-octanol], the “Solubility in Water at 40° C. (Wt %)” value is 0.089 Wt %.
Consider `CCO` [ethanol], for which the “patients in whom treatment was effective” value in data set [4] was 50%.
